The compounds below were run on beta-TC6 cells (assay: Insulin HTRF assay (relative activity Ar) in beta-TC6 cells). Conditions: Mus musculus, Beta-TC6, 4 h, insulin HTRF, supernatant of beta-TC6 cells, incubation with test compound at 37°C for 2, 3, 4h; read-out: Ar (relative activity).
Type: cell-based, mouse
Summary of the method: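 beta-TC6 cells (15k/well, seeded 24 or 48 h) washed, then exposed to compound in induction buffer (0.5% DMSO final) for 2, 3 or 4 h at 37°C.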

First: COCCNc1nc2cnc(Nc3cc(OC)c(OC)c(OC)c3)cc2n1C [Compound 645, N2-(2-methoxyethyl)-1-methyl-N6-(3,4,5-trimethoxyphenyl)imidazo[4,5-c]pyridine-2,6-diamine]
Second: CNc1nc2cnc(Nc3cc(OC)c(OC)c(OC)c3)cc2n1Cc1ccc(OC)c(OC)c1 [Compound 660, 1-[(3,4-dimethoxyphenyl)methyl]-N2-methyl-N6-(3,4,5-trimethoxyphenyl)imidazo[4,5-c]pyridine-2,6-diamine]
The Emax of the first is lower: 30 to 50% for the first, 50 to 100% for the second.

`COCCNc1nc2cnc(Nc3ccc(NC(C)=O)cc3)cc2n1C` [Compound 646, N-[4-[[2-(2-methoxyethylamino)-1-methyl-imidazo[4,5-c]pyridin-6-yl]amino]phenyl]acetamide] and `COCCNc1nc2cnc(Nc3ccc(C(=O)OC)cc3)cc2n1C` [Compound 649, methyl 4-[[2-(2-methoxyethylamino)-1-methyl-imidazo[4,5-c]pyridin-6-yl]amino]benzoate] fall in the same range of Emax: 50 to 100% for the first, 50 to 100% for the second.

`COCCNc1nc2cnc(-c3cccc(N(C)C)c3)cc2n1C` [Compound 647, 6-[3-(dimethylamino)phenyl]-N-(2-methoxyethyl)-1-methyl-imidazo[4,5-c]pyridin-2-amine] and `CNC(=O)c1cccc(-c2cc3c(cn2)nc(NCCOC)n3C)c1` [Compound 652, 3-[2-(2-methoxyethylamino)-1-methyl-imidazo[4,5-c]pyridin-6-yl]-N-methyl-benzamide] fall in the same range of Emax: 50 to 100% for the first, 50 to 100% for the second.

First: COCCNc1nc2cnc(-c3ccc(S(C)(=O)=O)cc3)cc2n1C [Compound 648, N-(2-methoxyethyl)-1-methyl-6-(4-methylsulfonylphenyl)imidazo[4,5-c]pyridin-2-amine]
Second: COCCNc1nc2cnc(-c3cnn(C)c3)cc2n1C [Compound 651, N-(2-methoxyethyl)-1-methyl-6-(1-methylpyrazol-4-yl)imidazo[4,5-c]pyridin-2-amine]
The Emax of the first is lower: 30 to 50% for the first, 50 to 100% for the second.

First: Cn1c(NCc2ccccc2F)nc2cnc(-c3ccc(N4CCOCC4)cc3)cc21 [Compound 653, N-[(2-fluorophenyl)methyl]-1-methyl-6-(4-morpholinophenyl)imidazo[4,5-c]pyridin-2-amine]
Second: Cn1c(NCc2ccccc2F)nc2cnc(-c3ccc(F)cc3)cc21 [Compound 657, 6-(4-fluorophenyl)-N-[(2-fluorophenyl)methyl]-1-methyl-imidazo[4,5-c]pyridin-2-amine]
The Emax of the first is higher: 50 to 100% for the first, 30 to 50% for the second.

First: Cn1c(NCc2ccccc2F)nc2cnc(-c3ccc(CO)cc3)cc21 [Compound 655, [4-[2-[(2-fluorophenyl)methylamino]-1-methyl-imidazo[4,5-c]pyridin-6-yl]phenyl]methanol]
Second: COc1cc(-c2cc3c(cn2)nc(NCc2ccccc2F)n3C)ccc1O [Compound 656, 4-[2-[(2-fluorophenyl)methylamino]-1-methyl-imidazo[4,5-c]pyridin-6-yl]-2-methoxy-phenol]
The Emax of the first is higher: 50 to 100% for the first, 30 to 50% for the second.

First: Cn1c(NCc2ccccc2F)nc2cnc(-c3cccs3)cc21 [Compound 658, N-[(2-fluorophenyl)methyl]-1-methyl-6-(2-thienyl)imidazo[4,5-c]pyridin-2-amine]
Second: CNc1nc2cnc(-c3ccccc3)cc2n1Cc1ccc(OC)c(OC)c1 [Compound 669, 1-[(3,4-dimethoxyphenyl)methyl]-N-methyl-6-phenyl-imidazo[4,5-c]pyridin-2-amine]
The Emax of the first is higher: 50 to 100% for the first, 30 to 50% for the second.

First: CNc1nc2cnc(-c3cccc(N)c3)cc2n1Cc1ccc(OC)c(OC)c1 [Compound 659, 6-(3-aminophenyl)-1-[(3,4-dimethoxyphenyl)methyl]-N-methyl-imidazo[4,5-c]pyridin-2-amine]
Second: CNc1nc2cnc(-c3ccc4ccccc4c3)cc2n1Cc1ccc(OC)c(OC)c1 [Compound 668, 1-[(3,4-dimethoxyphenyl)methyl]-N-methyl-6-(2-naphthyl)imidazo[4,5-c]pyridin-2-amine]
The Emax of the first is lower: 30 to 50% for the first, 50 to 100% for the second.

`CNc1nc2cnc(Nc3ccc(NC(C)=O)cc3)cc2n1Cc1ccc(OC)c(OC)c1` [Compound 661, N-[4-[[1-[(3,4-dimethoxyphenyl)methyl]-2-(methylamino)imidazo[4,5-c]pyridin-6-yl]amino]phenyl]acetamide] and `CNc1nc2cnc(Nc3ccc(O)cc3)cc2n1Cc1ccc(OC)c(OC)c1` [Compound 663, 4-[[1-[(3,4-dimethoxyphenyl)methyl]-2-(methylamino)imidazo[4,5-c]pyridin-6-yl]amino]phenol] fall in the same range of Emax: 50 to 100% for the first, 50 to 100% for the second.

First: CNc1nc2cnc(Nc3cccc(OC)c3)cc2n1Cc1ccc(OC)c(OC)c1 [Compound 662, 1-[(3,4-dimethoxyphenyl)methyl]-N6-(3-methoxyphenyl)-N2-methyl-imidazo[4,5-c]pyridine-2,6-diamine]
Second: CNc1nc2cnc(Nc3cccc(OC(C)C)c3)cc2n1Cc1ccc(OC)c(OC)c1 [Compound 676, 1-[(3,4-dimethoxyphenyl)methyl]-N6-(3-isopropoxyphenyl)-N2-methyl-imidazo[4,5-c]pyridine-2,6-diamine]
The Emax of the first is higher: 50 to 100% for the first, 30 to 50% for the second.

`CNc1nc2cnc(Nc3ccc(C(N)=O)cc3)cc2n1Cc1ccc(OC)c(OC)c1` [Compound 664, 4-[[1-[(3,4-dimethoxyphenyl)methyl]-2-(methylamino)imidazo[4,5-c]pyridin-6-yl]amino]benzamide] and `CNc1nc2cnc(Nc3ccc(SC)cc3)cc2n1Cc1ccc(OC)c(OC)c1` [Compound 675, 1-[(3,4-dimethoxyphenyl)methyl]-N2-methyl-N6-(4-methylsulfanylphenyl)imidazo[4,5-c]pyridine-2,6-diamine] fall in the same range of Emax: 50 to 100% for the first, 50 to 100% for the second.

Compared with `CNc1nc2cnc(Nc3ccc(OC)c(OC)c3)cc2n1Cc1ccc(OC)c(OC)c1` [Compound 665, N6-(3,4-dimethoxyphenyl)-1-[(3,4-dimethoxyphenyl)methyl]-N2-methyl-imidazo[4,5-c]pyridine-2,6-diamine], `CNc1nc2cnc(Nc3cccc(C)c3)cc2n1Cc1ccc(OC)c(OC)c1` [Compound 671, 1-[(3,4-dimethoxyphenyl)methyl]-N2-methyl-N6-(m-tolyl)imidazo[4,5-c]pyridine-2,6-diamine] is lower in Emax: 50 to 100% for the first, 30 to 50% for the second.

`CNc1nc2cnc(Nc3cccc(Cl)c3)cc2n1Cc1ccc(OC)c(OC)c1` [Compound 666, N6-(3-chlorophenyl)-1-[(3,4-dimethoxyphenyl)methyl]-N2-methyl-imidazo[4,5-c]pyridine-2,6-diamine] and `CNc1nc2cnc(Nc3cccc(F)c3)cc2n1Cc1ccc(OC)c(OC)c1` [Compound 674, 1-[(3,4-dimethoxyphenyl)methyl]-N6-(3-fluorophenyl)-N2-methyl-imidazo[4,5-c]pyridine-2,6-diamine] fall in the same range of Emax: 30 to 50% for the first, 30 to 50% for the second.

First: CNc1nc2cnc(Nc3ccccc3)cc2n1Cc1ccc(OC)c(OC)c1 [Compound 667, 1-[(3,4-dimethoxyphenyl)methyl]-N2-methyl-N6-phenyl-imidazo[4,5-c]pyridine-2,6-diamine]
Second: CNc1nc2cnc(Nc3cccc(C(C)=O)c3)cc2n1Cc1ccc(OC)c(OC)c1 [Compound 673, 1-[3-[[1-[(3,4-dimethoxyphenyl)methyl]-2-(methylamino)imidazo[4,5-c]pyridin-6-yl]amino]phenyl]ethanone]
The Emax of the first is lower: 30 to 50% for the first, 50 to 100% for the second.

`CNc1nc2cnc(-c3cccc4ccccc34)cc2n1Cc1ccc(OC)c(OC)c1` [Compound 670, 1-[(3,4-dimethoxyphenyl)methyl]-N-methyl-6-(1-naphthyl)imidazo[4,5-c]pyridin-2-amine] and `CNc1nc2cnc(-c3ccc(OC)cc3)cc2n1Cc1ccc(OC)c(OC)c1` [Compound 672, 1-[(3,4-dimethoxyphenyl)methyl]-6-(4-methoxyphenyl)-N-methyl-imidazo[4,5-c]pyridin-2-amine] fall in the same range of Emax: 30 to 50% for the first, 30 to 50% for the second.

First: COCCNc1nc2cnc(-c3ccc4ccccc4c3)cc2[nH]1 [Compound 677, N-(2-methoxyethyl)-6-(2-naphthyl)-1H-imidazo[4,5-c]pyridin-2-amine]
Second: CNc1nc2cnc(-c3cccc(N(C)C)c3)cc2n1-c1cccc(F)c1 [Compound 683, 6-[3-(dimethylamino)phenyl]-1-(3-fluorophenyl)-N-methyl-imidazo[4,5-c]pyridin-2-amine]
The Emax of the first is higher: 50 to 100% for the first, 30 to 50% for the second.

First: CNc1nc2cnc(-c3ccc(N(C)C)cc3)cc2n1-c1cccc(F)c1 [Compound 678, 6-(4-dimethylaminophenyl)-1-(3-fluorophenyl)-N-methyl-imidazo[4,5-c]pyridin-2-amine]
Second: CNc1nc2cnc(-c3ccc(S(C)(=O)=O)cc3)cc2n1-c1cccc(F)c1 [Compound 684, 1-(3-fluorophenyl)-N-methyl-6-(4-methylsulfonylphenyl)imidazo[4,5-c]pyridin-2-amine]
The Emax of the first is higher: > 100% for the first, 30 to 50% for the second.

`CNc1nc2cnc(Nc3cc(OC)c(OC)c(OC)c3)cc2n1-c1cccc(F)c1` [Compound 679, 1-(3-fluorophenyl)-N2-methyl-N6-(3,4,5-trimethoxyphenyl)imidazo[4,5-c]pyridine-2,6-diamine] and `CNc1nc2cnc(Nc3cccc(OC)c3)cc2n1-c1cccc(F)c1` [Compound 680, 1-(3-fluorophenyl)-N6-(3-methoxyphenyl)-N2-methyl-imidazo[4,5-c]pyridine-2,6-diamine] fall in the same range of Emax: 50 to 100% for the first, 50 to 100% for the second.

`CNc1nc2cnc(Nc3ccc(C(N)=O)cc3)cc2n1-c1cccc(F)c1` [Compound 681, 4-[[1-(3-fluorophenyl)-2-(methylamino)imidazo[4,5-c]pyridin-6-yl]amino]benzamide] and `CNc1nc2cnc(Nc3ccc(OC)cc3)cc2n1-c1cccc(F)c1` [Compound 685, 1-(3-fluorophenyl)-N6-(4-methoxyphenyl)-N2-methyl-imidazo[4,5-c]pyridine-2,6-diamine] fall in the same range of Emax: 50 to 100% for the first, 50 to 100% for the second.

First: CNc1nc2cnc(Nc3cccc(N(C)C)c3)cc2n1-c1cccc(F)c1 [Compound 682, N6-[3-(dimethylamino)phenyl]-1-(3-fluorophenyl)-N2-methyl-imidazo[4,5-c]pyridine-2,6-diamine]
Second: CNc1nc2cnc(Nc3ccc(C#N)cc3)cc2n1-c1cccc(F)c1 [Compound 686, 4-[[1-(3-fluorophenyl)-2-(methylamino)imidazo[4,5-c]pyridin-6-yl]amino]benzonitrile]
The Emax of the first is higher: 50 to 100% for the first, 30 to 50% for the second.
